{
  "source": "patent US9163032B2",
  "about": "“Esters of DCPLA and methods of treatment using the same” (Blanchette Rockefeller Neurosciences Institute, priority 2011, dated 2015)",
  "key": {"[1]": {"target": "PKC-α (Homo sapiens, UniProt P17252)", "experiment": "PKC activation assay with purified PKC-α isozyme", "format": "biochemical", "experimental": "(§1) For measurement of PKC activation by DCPLA-ME, activation of recombinant PKC-α, PKC-ε, and PKC-δ was evaluated. DCPLA-ME induced activation was measured in the absence of diacylglycerol (DAG) and phosphatidylserine (PS) as described earlier. See Nelson, T. J. et al., J. Biol. Chem., 2009, 284: 34514-34521, and Kanno, T. et al., J. Cell Physiol., 2009, 221: 183-188. Individual enzymes were incubated for 15 min at 37° C. in the presence of 10 μM histones, 4.89 mM CaCl2, 10 mM MgCl2, 20 mM HEPES (pH 7.4), 0.8 mM EDTA, 4 mM EGTA, 4% glycerol, 8 μg/ml aprotinin, 8 μg/ml leupeptin, 2 mM benzamidine, and 0.5 μCi of [γ-^32P]ATP. Purified PKC-α, PKC-ε and PKC-δ were preincubated with DCPLA-ME for 5 min at room temperature. [^32P]-Phosphoprotein formation was measured by adsorption onto phosphocellulose.\nTo measure PKC, 10 μl of cell homogenate or purified PKC isozyme was incubated for 15 min at 37° C. in the presence of 10 μM histones, 4.89 mM CaCl2, 1.2 μg/μl phosphatidyl-L-serine, 0.18 μg/μl 1,2-dioctanoyl-sn-glycerol, 10 mM MgCl2, 20 mM HEPES (pH 7.4), 0.8 mM EDTA, 4 mM EGTA, 4% glycerol, 8 μg/ml aprotinin, 8 μg/ml leupeptin, and 2 mM benzamidine. [γ32P]ATP (0.5 μCi) was added and 32P-phosphoprotein formation was measured by adsorption onto phosphocellulose as described previously. […]\nPKC activity of each compound was measured in the absence of diacylglycerol and phosphatidyl-L-serine and PKC-δ and PKC-ε were measured in the absence of added EGTA and CaCl2, as described by Kanno et al., J. Lipid Res., 2006, 47: 1146-1156. […] To determine their PKC isozyme specificity, the compounds were pre-incubated with purified isoforms of PKC for five minutes and the PKC activity was measured radiometrically.\nThe activation and PKC isozyme specificity of DCPLA-ethyl ester was measured following the procedures in Example 1(B) and (C), except that 9 ng of the purified isozyme was used and it was pre-incubated for 5 minutes at room temperature (FIG. 3). PKC-ε activation by DCPLA-tert-butyl ester and DCPLA-retinyl ester was measured in the same manner as DCPLA-ethyl ester (FIG. 3)."}, "[2]": {"target": "PKC-δ (Homo sapiens, UniProt Q05655)", "sequence (Q05655 whole entry)": "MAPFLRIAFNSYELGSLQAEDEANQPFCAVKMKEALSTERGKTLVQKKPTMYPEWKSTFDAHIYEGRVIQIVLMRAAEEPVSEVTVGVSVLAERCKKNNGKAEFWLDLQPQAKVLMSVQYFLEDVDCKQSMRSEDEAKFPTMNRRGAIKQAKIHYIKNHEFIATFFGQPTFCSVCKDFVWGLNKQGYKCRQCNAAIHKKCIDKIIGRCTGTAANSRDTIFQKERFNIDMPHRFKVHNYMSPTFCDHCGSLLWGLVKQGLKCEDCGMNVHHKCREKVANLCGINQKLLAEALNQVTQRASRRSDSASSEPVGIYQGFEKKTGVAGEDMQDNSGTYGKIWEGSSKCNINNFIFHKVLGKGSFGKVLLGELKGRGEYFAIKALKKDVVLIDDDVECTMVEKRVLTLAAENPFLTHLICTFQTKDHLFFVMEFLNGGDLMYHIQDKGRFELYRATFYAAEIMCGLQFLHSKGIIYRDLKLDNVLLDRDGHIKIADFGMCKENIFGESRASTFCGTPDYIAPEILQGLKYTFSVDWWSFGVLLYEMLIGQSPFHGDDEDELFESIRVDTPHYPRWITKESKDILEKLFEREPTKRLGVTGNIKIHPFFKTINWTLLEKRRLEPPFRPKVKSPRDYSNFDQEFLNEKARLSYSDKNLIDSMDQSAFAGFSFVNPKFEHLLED", "experiment": "PKC activation assay with purified PKC-δ isozyme", "format": "biochemical", "experimental": "as §1\nTo measure PKC, 10 μl of cell homogenate or purified PKC isozyme was incubated for 15 min at 37° C. in the presence of 10 μM histones, 4.89 mM CaCl2, 1.2 μg/μl phosphatidyl-L-serine, 0.18 μg/μl 1,2-dioctanoyl-sn-glycerol, 10 mM MgCl2, 20 mM HEPES (pH 7.4), 0.8 mM EDTA, 4 mM EGTA, 4% glycerol, 8 μg/ml aprotinin, 8 μg/ml leupeptin, and 2 mM benzamidine. [γ32P]ATP (0.5 μCi) was added and 32P-phosphoprotein formation was measured by adsorption onto phosphocellulose as described previously. See Nelson et al., J. Neurochemistry, 1995, 65: 2350-2357. […]"}, "[3]": {"test_system": "Wistar rats", "experiment": "Water maze spatial learning and memory task", "format": "in vivo, rat", "details": "for water maze learning performance (escape latency) vs control: 8 doses, rats", "experimental": "Water maze spatial learning and memory task (2 training trials/day for 4 days) was used to evaluate effects of oral DCPLA-ME on learning and memory in rats. A visible platform test was conducted after the end of the experiments to evaluate whether the treatment might result in an altered sensorimotor activity and escape motivation.\nMale adult Wistar rats (200-250 g) were housed in a temperature-controlled (20-24° C.) room for a week, allowed free access to food and water, and kept on a 12-h light/dark cycle. Rats were anesthetized with sodium pentobarbital (60 mg/kg i.p) and placed in a stereotactic apparatus (Kopf Instruments, Tujunga, Calif.). The core temperature of rats was monitored and kept constant (38.0±0.5° C.) with warming light and pad. Two stainless steel guide cannulas were placed with the tips positioned at the coordinates (anterior-posterior, 0.5 mm; lateral, 1.5 mm; horizontal, 3.2 mm), under aseptic conditions. At the end of surgery and under appropriate anesthesia, rats received (s.c.) banamine (1 mg/kg) and ketoprofen (5 mg/kg) in lactate/Ringer's solution. A 7-day recovery period was allowed before any further experimentation.\nOn the first day of experiments, all rats were randomly assigned to different groups and swam for 2 min in a 1.5-(diameter)×0.6-m (depth) pool (22±1° C.). On the following day, rats were trained in a two-trial per day task for four consecutive days. Each training trial lasted for up to 2 min, during which rats learned to escape from water by finding a hidden platform that was placed at a fixed location and submerged 1 cm below the water surface. The navigation of the rats was tracked by a video camera. The escape latency and the route of rats' swimming across the pool to the platform were recorded. The quadrant test (1 min) was performed after removing the platform, 24 hr after the last training trial. […]\nData were analyzed using a target quadrant ratio (dividing the target quadrant distance by the average of the non-target quadrant values during the probe test; FIG. 14D)."}},
  "note": "“Also recorded” adds a separate entry of the source.",
  "data": [
    {"smiles": "CCCCCC1CC1CC1CC1CCCCCCCC(=O)OC", "note": "(centres unmarked) [DCPLA-ME, DCPLA methyl ester]", "values": [
      {"measurement": "effect on PKC-α", "setting": "[1]", "result": "did not have a major effect"},
      {"measurement": "effect on PKC-δ", "setting": "[2]", "result": "did not have a major effect; also recorded: less inhibitory effect"},
      {"measurement": "water maze learning performance (escape latency) vs control", "setting": "[3]; 5.3 mg/kg intragastric", "result": "did not reach a significant level"},
      {"measurement": "water maze learning performance (escape latency) vs control", "setting": "[3]; 16.0 mg/kg intragastric", "result": "improved learning performance"},
      {"measurement": "memory retention, target quadrant ratio vs control", "setting": "[3]; 16.0 mg/kg intragastric, probe test 24 hr after last trial", "result": "significant difference"}
    ]}
  ]
}
